Laboratory results published in patent publication US20230183239A1, “ECTONUCLEOTIDE PYROPHOSPHATASE-PHOSPHODIESTERASE 1 (ENPP-1) INHIBITORS AND USES THEREOF” (AbbVie Inc., priority 2017, published 2023).
pKi: −log10 of the molar value.

Assays:
Format in all cases: biochemical
[1] = biological target: T1, ENPP1 (Homo sapiens, UniProt P22413); test: ENPP1 enzyme assay with AMP-pNP substrate (hydrolysis of ATP analog)
T1 sequence (P22413 1-925): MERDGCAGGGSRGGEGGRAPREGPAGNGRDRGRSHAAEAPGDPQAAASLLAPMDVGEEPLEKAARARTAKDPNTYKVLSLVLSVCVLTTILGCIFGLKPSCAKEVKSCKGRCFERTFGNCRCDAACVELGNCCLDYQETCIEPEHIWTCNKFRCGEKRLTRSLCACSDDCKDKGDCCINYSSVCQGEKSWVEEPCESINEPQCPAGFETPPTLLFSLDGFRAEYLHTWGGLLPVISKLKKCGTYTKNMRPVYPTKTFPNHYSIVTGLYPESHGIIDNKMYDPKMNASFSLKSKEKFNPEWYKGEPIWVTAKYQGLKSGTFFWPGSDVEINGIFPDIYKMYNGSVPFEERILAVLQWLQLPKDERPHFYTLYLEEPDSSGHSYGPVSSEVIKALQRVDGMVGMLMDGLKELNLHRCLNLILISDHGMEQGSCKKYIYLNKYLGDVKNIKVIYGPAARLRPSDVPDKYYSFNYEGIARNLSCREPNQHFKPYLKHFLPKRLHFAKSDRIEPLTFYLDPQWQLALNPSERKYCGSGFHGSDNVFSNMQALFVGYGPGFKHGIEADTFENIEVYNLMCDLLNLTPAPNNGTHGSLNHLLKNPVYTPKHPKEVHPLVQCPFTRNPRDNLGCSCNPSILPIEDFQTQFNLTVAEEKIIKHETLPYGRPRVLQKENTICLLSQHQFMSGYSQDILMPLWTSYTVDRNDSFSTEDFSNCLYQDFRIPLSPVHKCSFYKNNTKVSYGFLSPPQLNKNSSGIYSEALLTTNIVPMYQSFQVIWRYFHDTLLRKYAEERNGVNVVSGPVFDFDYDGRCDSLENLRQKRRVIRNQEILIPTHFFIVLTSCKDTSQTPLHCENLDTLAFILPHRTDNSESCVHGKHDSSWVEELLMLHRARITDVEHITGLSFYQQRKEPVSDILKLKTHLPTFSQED
Protocol: The ENPP1 assay with AMP-pNP substrate is conducted in a buffer containing 50 mM Tris-HCl (pH 8.5)/ 250 mM NaCl/0.5 mM CaCl2/1 µM ZnCl2/0.1% DMSO. Inhibitors are added at final concentrations ranging between 10 µM and 30 pM depending on the compound. Duplicate wells are run at each inhibitor concentration. The final assay volume is 40 µL and human recombinant ENPP1 is present at 60 ng/well. The assay is initiated by the addition of substrate (300 µM AMP-pNP final concentration), and incubated for 20 minutes at 37° C. […] Each assay plate also includes wells with no enzyme added (MIN OD) and wells with no inhibitor added (MAX OD). The percent inhibition of ENPP1 for each sample is then calculated as: […]
IC50 values of compounds were calculated by entering the percent inhibition values into a sigmoidal variable slope nonlinear regression model in GraphPad Prism® software.

[2] = biological target: T1, ENPP1; test: Indirect quantitation of 2',3'-cGAMP hydrolysis (AMP-Glo Assay kit)
[3] = biological target: T1, ENPP1; test: Substrate selectivity ratio, inhibition of cGAMP hydrolysis versus ATP hydrolysis; settings: ratio Ki AMP-pNP / Ki cGAMP
Protocol: The selectivity ratios for inhibition of cGAMP hydrolysis versus ATP hydrolysis were then calculated as follows: […]

[4] = AMP-pNP substrate (ATP analog), Ki from IC50 by Cheng-Prusoff, read-out: ENPP1 Inhibition _AMP-pNP: Ki
[5] = cGAMP substrate, Ki from IC50 by Cheng-Prusoff, read-out: ENPP1 Inhibition -cGAMP: Ki

Row | SMILES | pKi [1, 4] | pKi [2, 5] | Substrate Selectivity: Ki_AMP-pNP/Ki_cGAMP [3] | pKi [1] | pKi [2]
1 | COc1cc2nccc(Nc3ccc(CC(=O)NO)cc3)c2cc1OC [Example 207, 2-(4-((6,7-dimethoxyquinolin-4-yl)amino)phenyl)-N-hydroxyacetamide] | > 7.00 | > 7.00 | 36.8 |  | 
2 | COc1cc2nccc(N3CC4CN(S(N)(=O)=O)CC4C3)c2cc1OC (stereo not drawn) [Example 202, 5-(6,7-dimethoxyquinolin-4-yl)hexahydropyrrolo[3,4-c]pyrrole-2(1H)-sulfonamide] | 6.00 to 7.00 | > 7.00 | 10.5 |  | 
3 | COc1cc2nccc(Nc3ccc(NS(=O)(=O)c4ccccc4)cc3)c2cc1OC [Example 153, N-(4-((6,7-dimethoxyquinolin-4-yl)amino)phenyl)benzenesulfonamide] | < 6.00 | > 7.00 | 62.9 |  | 
4 | COc1ccc2c(Oc3ccc(NS(N)(=O)=O)cc3)ccnc2n1 [Example 73, N-(4-((7-methoxy-1,8-naphthyridin-4-yl)oxy)phenyl)sulfamide] | > 7.00 | > 7.00 | 24.2 |  | 
5 | COc1ccc2c(N3CCc4cc(NS(N)(=O)=O)ccc43)ncnc2c1 [Example 392, N-(1-(7-methoxyquinazolin-4-yl)indolin-5-yl)sulfamide] | < 6.00 | > 7.00 | >133 |  | 
6 | COc1ccc2c(N3CCc4cc(NS(N)(=O)=O)ccc43)ccnc2c1 [Example 59, N-(1-(7-methoxyquinolin-4-yl)indolin-5-yl)sulfamide] | > 7.00 | > 7.00 | 29.6 |  | 
7 | COc1cc(F)c2c(N3CCc4cc(NS(N)(=O)=O)ccc43)ccnc2c1 [Example 412, N-(1-(5-fluoro-7-methoxyquinolin-4-yl)indolin-5-yl)sulfamide] | < 6.00 | 6.00 to 7.00 | >271 |  | 
8 | COc1ccc2c(N3CCC4(CCNC4)CC3)c(C#N)cnc2c1 [Example 275, 7-methoxy-4-(2,8-diazaspiro[4.5]decan-8-yl)quinoline-3-carbonitrile] | < 6.00 | 6.00 to 7.00 | >7.7 |  | 
9 | COc1cc2ncn(-c3ccc(CNS(N)(=O)=O)cc3)c2cc1OC [Example 120, N-(4-(5,6-dimethoxy-1H-benzo[d]imidazol-1-yl)benzyl)sulfamide] | < 6.00 | > 7.00 | 54.5 |  | 
10 | COc1cc2ncnc(NC(C)c3ccc(NS(N)(=O)=O)cc3)c2cc1OC (stereo in doubt) [Example 254, (S)-N-(4-(1-((6,7-dimethoxyquinazolin-4-yl)amino)ethyl)phenyl)sulfamide] | < 6.00 | > 7.00 | > 31.4 |  | 
11 | COc1cc2ncnc(N3CCN(C(=O)CNS(N)(=O)=O)CC3)c2cc1OC [Example 52, N-(2-(4-(6,7-dimethoxyquinazolin-4-yl)piperazin-1-yl)-2-oxoethyl)sulfamide] |  |  | 58.1 | 6.00 to 7.00 | > 7.00

Now from value to molecule, other results behind:

Row | pKi [1, 4] | pKi [2, 5] | Substrate Selectivity: Ki_AMP-pNP/Ki_cGAMP [3] | SMILES | pKi [1] | pKi [2]
12 | < 6.00 | 6.00 to 7.00 | >216 | COc1ccc2c(Oc3ccc(NS(=O)(=O)NN)cc3)ccnc2c1 [Example 362, N-(4-((7-methoxyquinolin-4-yl)oxy)phenyl)hydrazinesulfonamide] |  | 
13 | < 6.00 | 6.00 to 7.00 | >82.4 | NS(=O)(=O)Nc1ccc(Nc2ncnc3ncccc23)cc1 [Example 242, N-(4-(pyrido[2,3-d]pyrimidin-4-ylamino)phenyl)sulfamide] |  | 
14 | < 6.00 | 6.00 to 7.00 | >74 | COc1ccc2c(Oc3ccc(NS(N)(=O)=O)cc3C#N)ccnc2c1 [Example 353] |  | 
15 | 6.00 to 7.00 | > 7.00 | 39.2 | COc1ccc2c(N3CCC(CCNS(N)(=O)=O)CC3)ncnc2c1 [Example 198, N-(2-(1-(7-methoxyquinazolin-4-yl)piperidin-4-yl)ethyl)sulfamide] |  | 
16 | 6.00 to 7.00 | > 7.00 | >5.9 | COc1cc2ncc(-c3ccc(CNS(N)(=O)=O)cc3)n2cc1OC [Example 266, N-(4-(6,7-dimethoxyimidazo[1,2-a]pyridin-3-yl)benzyl)sulfamide] |  | 
17 | 6.00 to 7.00 | > 7.00 | > 19.9 | COc1cc2nccc(Oc3ccc(NS(N)(=O)=O)cc3F)c2cc1OC [Example 201, N-(4-((6,7-dimethoxyquinolin-4-yl)oxy)-3-fluorophenyl)sulfamide] |  | 
18 | 6.00 to 7.00 | > 7.00 | 34.2 | COc1cc2ncnc(-c3ccc(CNS(N)(=O)=O)c(F)c3)c2cc1OC [Example 301, N-(4-(6,7-dimethoxyquinazolin-4-yl)-2-fluorobenzyl)sulfamide] |  | 
19 | 6.00 to 7.00 | > 7.00 | 43 | NS(=O)(=O)c1ccc(Oc2ccnc3[nH]c(=O)ccc23)cc1 [Example 352, 4-((7-oxo-7,8-dihydro-1,8-naphthyridin-4-yl)oxy)benzenesulfonamide] |  | 
20 | < 6.00 | > 7.00 | >371 | COc1ccc2ncc(C#N)c(-c3ccc4c(c3)CN(S(N)(=O)=O)CC4)c2c1 [Example 237, 7-(3-cyano-6-methoxyquinolin-4-yl)-3,4-dihydroisoquinoline-2(1H)-sulfonamide] |  | 
21 | 6.00 to 7.00 | > 7.00 | 17.1 | COc1cc2ncc(C#N)c(-c3ccc(CN(C4CC4)S(N)(=O)=O)cc3)c2cc1OC [Example 290, N-(4-(3-cyano-6,7-dimethoxyquinolin-4-yl)benzyl)-N-cyclopropylsulfamide] |  | 
22 | < 6.00 | > 7.00 | >42.7 | COc1cc2ncnc(Nc3ccc(NS(N)(=O)=O)cc3)c2cc1OC [Example 114, N-(4-((6,7-dimethoxyquinazolin-4-yl)amino)phenyl)sulfamide] |  | 
23 | 6.00 to 7.00 | > 7.00 | >7 | COc1ccc2c(-c3ccc(CN(C)S(N)(=O)=O)cc3)ccnc2c1 [Example 368, N-(4-(7-methoxyquinolin-4-yl)benzyl)-N-methyl sulfamide] |  | 
24 | 6.00 to 7.00 | > 7.00 | >13 | COc1ccc2c(Oc3ccc(NS(N)(=O)=O)cc3)cc(C)nc2c1 [Example 397, N-(4-((7-methoxy-2-methylquinolin-4-yl)oxy)phenyl)sulfamide] |  | 
25 | 6.00 to 7.00 | > 7.00 | >7.1 | COc1ccc2c(Nc3ccc(NS(N)(=O)=O)cc3)ccnc2c1F [Example 269, N-(4-((8-fluoro-7-methoxyquinolin-4-yl)amino)phenyl)sulfamide] |  | 
26 | < 6.00 | 6.00 to 7.00 | >50.7 | COc1cc2ncnc(N3CCC(CCC(=O)O)CC3)c2cc1OC [Example 171, 3-(1-(6,7-dimethoxyquinazolin-4-yl)piperidin-4-yl)propanoic acid] |  | 
27 | < 6.00 | > 7.00 | >49.7 | COc1ccc2c(Oc3ccc(NS(N)(=O)=O)c(C#N)c3)ccnc2c1 [Example 315, N-(2-cyano-4-((7-methoxyquinolin-4-yl)oxy)phenyl)sulfamide] |  | 
28 | 6.00 to 7.00 | > 7.00 | >99.7 | COc1ccc2ncc(C#N)c(N3CCC4(CC3)CCN(S(N)(=O)=O)C4)c2c1 [Example 238, 8-(3-cyano-6-methoxyquinolin-4-yl)-2,8-diazaspiro[4.5]decane-2-sulfonamide] |  | 
